From US20250339432A1, “QUINAZOLINONE COMPOUND AS BRAF INHIBITOR FOR THE TREATMENT OF ADVANCED SOLID CANCER OR METASTASES” (Hoffmann-La Roche Inc., priority 2022, published 2025)

Key:
[1] = human, in vivo
Source text: Participants in the Pilot PK Cohort were enrolled and treated in a staggered manner (at least 3 days between the first and second participant).
The dosing regimen will then change to a twice-daily (BID) or three-times-daily (TID) administration, depending on new emerging PK data.
The number of patients with leptomeningeal involvement of their tumours is capped at 33% in each cohort. To avoid exposing participants to undue risk of toxicity, the maximum allowable dose increment recommended by the mCRM EWOC (modified continual reassessment method escalation with overdose control) design will be 100% (i.e., a 2-fold increase). […] The mCRM-EWOC will be adapted to the new dosing regimen.
Safety assessments will consist of monitoring and recording AEs, including serious AEs (SAEs) and non-SAEs of special interest (NSAESI); measurement of protocol-specified safety laboratory assessments; measurement of protocol-specified vital signs, ECGs; and other protocol-specified tests that are deemed critical to the safety evaluation of the study.

[2] = in vivo
Experimental: (§1) In a Pilot PK Cohort prior to the dose-escalation in Part 1a (monotherapy), the PK of Compound Ia was explored after a single, oral dose of 25 mg in 2 participants to address the PK uncertainty.
(§2) Blood samples to evaluate concentrations of Compound Ia and cobimetinib (and its metabolite[s], if appropriate) will be collected. The date and time of each sample collection will be recorded. Compound Ia and cobimetinib levels will be analyzed by using validated LC-MS/MS assays. […] Dedicated PK samples will be collected for the Pilot PK Cohort and the Food Cohort at pre-defined timepoints.
(§3) PK parameters for Compound Ia administered alone and in combination with cobimetinib will be derived from the plasma concentrations and will be listed and summarized using descriptive statistics (such as mean, standard deviation, coefficient of variation, median, minimum, and maximum). The PK parameters will include but are not limited to area under the curve (AUC), maximum concentration (Cmax), time of maximum concentration observed (Tmax) and, apparent oral clearance (CL/F), volume of distribution at steady-state (Vss/F), and terminal half-life (t½). Estimation of PK parameters may be performed using standard non-compartmental methods and/or population PK modeling. If data allow, other methods may be used for data analysis, e.g., PK and PD data may be used to develop a population PK/PD model. Individual and mean plasma Compound Ia concentration versus time data will be tabulated and plotted by dose levels. […] The linearity of PK (AUC and Cmax) will be investigated. To assess the FE on the PK of Compound Ia, PK parameters (such as AUC, Cmax, Tmax and t1/2) will be analyzed following oral administration of Compound Ia while either fed (high-fat meal) or fasted for a minimum of 6 participants. Estimation of PK parameters may be performed using standard non-compartmental methods and/or population PK modeling. Furthermore, Compound Ia CSF concentrations (where applicable) might be presented by listings and descriptive summary statistics (such as mean, standard deviation, coefficient of variation, median, minimum, and maximum). If data allow, other methods may be used for data analysis, e.g., PK and PD data may be used to develop a population PK/PD model.

[3] = Solubility / biopharmaceutics classification; format: physicochemical; conditions: for solubility across the physiological pH range: behaves like a weak acid
[4] = Food Cohort: food effect on PK (high-fat meal vs fasted); format: in vivo, human; conditions: fed cohort vs fasted, preliminary PK data, FIG. 3
Source text: Part 1—Food Cohort: The food effect (FE) on the PK of Compound Ia will be evaluated in Part 1a (Compound Ia monotherapy) or in Part 1b (Compound Ia in combination with cobimetinib) at the MTD and/or RP2D, or at dose levels close to the RP2D and/or MTD of Compound Ia with or without cobimetinib. For exploring the effect of food intake, participants will receive Compound Ia after a high-fat meal (Group 1) or following a 10-hour fast (Group 2) using a parallel design. For this pilot FE evaluation, a minimum of 6 evaluable participants will be enrolled.
Meals and Dietary Restrictions: Generally, for participants receiving Compound Ia, no dietary restrictions are foreseen. A preliminary assessment of the FE (food effect) on the PK of Compound Ia will be done in Part 1 to inform about potential dietary requirements for the dose expansion (Part 2) in case a FE is observed. For participants receiving cobimetinib, the use of grapefruit juice, a potent CYP3A4 enzyme inhibitor, is prohibited during the study and for 30 days after the last dose of study treatment. For Participants in Food Cohort in the Food Cohort of Part 1, the effect of food on the systemic exposure of Compound Ia will be explored close to the MTD and/or at RP2D or relevant dose levels for a minimum of 6 participants. […] The food intake during the high-fat meal plus calories and fat content will be recorded.

[5] = Non-clinical safety benchmark dose in rats
clinical = conditions: human, in vivo, po, 25 mg
Experimental: as §1, §2, §3

In the case of `Cn1cnc2ccc(Oc3c(F)ccc(NS(=O)(=O)N4CC[C@@H](F)C4)c3C#N)cc2c1=O` [Compound Ia, (3R)—N-[2-cyano-4-fluoro-3-(3-methyl-4-oxo-quinazolin-6-yl)oxy-phenyl]-3-fluoro-pyrrolidine-1-sulfonamide], the “drug related Grade 3 adverse events” value [1] is reported as “less than 25%”, the “safety margin based on unbound AUC0-∞ to the safety benchmark dose of 200 mg/kg/day in rat” value [2] is reported as 22 fold and the “safety margin based on unbound Cmax to the safety benchmark dose of 200 mg/kg/day in rat” value [2] is reported as 4 fold. For the same compound, the “safety margin based on preliminary unbound AUC0-∞ to the safety benchmark dose of 200 mg/kg/day in rats” value ([2]; rat) was 174 fold, the “safety margin based on preliminary unbound Cmax to the safety benchmark dose of 200 mg/kg/day in rats” value ([2]; rat) was 32 fold and the “biopharmaceutics classification system class” value [3] was “class 2”. For the same compound, the solubility [3] was “low and pH dependent solubility”, the “solubility across the physiological pH range” value [3] was “purely soluble at low pH with increasing solubility at neutral and alkaline pH” and the “solubility across the physiological pH range” value ([3]; listed as compound of formula (I)) was “poorly soluble at low pH with increasing solubility at neutral and alkaline pH”. For the same compound, the “effect of food on AUCINF (AUC0-∞)” value [4] was “did not significantly alter”, the “effect of food on Cmax” value [4] was “lower Cmax” and the NOAEL ([5]; rat, in vivo) was 200 mg/kg/day. The “safety benchmark dose (toxic dose in 10% of animals)” value ([5]; rats) was 200 mg/kg/day and the half-life (clinical) was 2 to 4 h.
